# Experimental data taken from patent US4657928A, “Organic copper complexes as radioprotectants” (priority 1984, dated 1987).
# Read-outs that look alike come from different tables or passages of the source.
# Experiments:
# [1] = SOD-like activity: inhibition of superoxide reduction of nitroblue tetrazolium (DMSO-KO2 / xanthine-xanthine oxidase); format: biochemical; conditions: for IC50 / Percent Reactivity (SOD-like activity): Table I; for IC50: read-out: Concentration: compound required for 50% inhibition of superoxide reduction of nitroblue tetrazolium; for Percent Reactivity (SOD-like activity): relative to Cu-Zn SOD = 100
# [2] = cited from earlier work
# [3] = pH 12; cited from earlier work
# [4] = pH 7.0; cited from earlier work
# patients = conditions: ongoing clinical trials; cited from earlier work
# lethally irradiated mice = assay: Radioprotection: survival of lethally irradiated (60Co) mice; format: in vivo, female B6CBFl mice
# Method: One group of 22-control and two groups of 24-treated 8 to 10 week old female B6CBFl mice (Cumberland View Farms, Clinton, Tennessee) were used. Control animals were given a subcutaneous (sc) injection of 0.3 ml of vehicle (0.25% Tween 80 in 0.9% pyrogen-free sterile saline) 24 hours before irradiation. One treatment group was given a single sc injection of 0.49 mM/kg of Cu(II)(3,5-dips)2 in 0.3 ml of vehicle 3 hours before irradiation and the other group was given the same treatment 24 hours before irradiation.
# This radiation dose was measured with an electrometer connected to 0.05 ml NBS calibrated ion chambers positioned inside wax phantom mice placed in plexiglass cages. The tissue to air ratio for these phantom mice has been determined to be 97 percent. Control and treated mice were housed 5 mice per cage and fed mouse chow and water ad libitum for the 30 day observation period.
# human beings = assay: Predicted toxicity in human beings by extrapolation; conditions: per body weight
# Method: (§1) The particular embodiment described in complete detail herein concerns the use of Cu(II)(3,5-dips)2. […] A minimum prophylatic dose would be about 0.001 mg/kg, while a therapeutic dose would range from about 1 mg to 100 mg/kg, depending upon the radiation dose. Therapeutic doses would be initiated about two weeks before radiotherapy, and would continue as necessary after the radiation treatment. For cases of accidental exposure, treatment would be initiated immediately after exposure and continued as necessary thereafter. Prophylactic doses would be taken on a continuing basis, for example a daily basis, as long as the recurrent radiation exposure continued. In any of these cases, the route of administration might be oral, topical, rectal or parenteral (e.g., intramuscular, intravenous, subcutaneous, or intraperitoneal).
# rats = assay: Acute toxicity in rats (subcutaneous); format: in vivo
# Method: as §1
# Copper 3,5-diisopropylsalicylate was synthesized according to the method of Sorenson, J. Med. Chem. 19:135 (1976), which is incorporated herein by reference.
# [5] = Rate of superoxide dismutation; format: biochemical; conditions: Table I
# Text: The enzyme superoxide dismutase (SOD) plays a significant role in the defense against oxygen toxicity in aerobic organisms. Superoxide dismutase catalyzes the dismutation of O2^-, as follows:.
# 2 ^- O-O^. +2H^+ →H2 O2 +^. O-O^.
# **Weser, et al., In "Inflammatory Diseases and Copper", Sorenson (ed.),
# Humana Press: Clifton, New Jersey (1982), p. 513
# mice = assay: Acute toxicity in mice (subcutaneous); format: in vivo; conditions: subcutaneous injection, 10080 min
# Method: as §1
# [6] = 0.49 mM/kg sc 3 hours before 10 Gy, 30 day observation
# [7] = 0.49 mM/kg sc 24 hours before 10 Gy, 30 day observation
compound,measurement,setting,value
CC(=O)Oc1ccccc1C(=O)[O-].CC(=O)Oc1ccccc1C(=O)[O-].CC(=O)Oc1ccccc1C(=O)[O-].CC(=O)Oc1ccccc1C(=O)[O-].CS(C)=O.CS(C)=O.[Cu+2].[Cu+2] [Cu(II)2 (acetylsalicylate)4 (DMSO)2],IC50,[1],2800 nM
same,Percent Reactivity (SOD-like activity),[1],0.69%
CC(=O)Oc1ccccc1C(=O)[O-].CC(=O)Oc1ccccc1C(=O)[O-].CC(=O)Oc1ccccc1C(=O)[O-].CC(=O)Oc1ccccc1C(=O)[O-].CS(C)=O.CS(C)=O.CS(C)=O.CS(C)=O.[Cu+2].[Cu+2] [Cu(II)2 (acetylsalicylate)4 (dimethylsulfoxide)4],superoxide scavenging (in words),[1],superoxide scavengers
CC(=O)Oc1ccccc1C(=O)[O-].CC(=O)Oc1ccccc1C(=O)[O-].CC(=O)Oc1ccccc1C(=O)[O-].CC(=O)Oc1ccccc1C(=O)[O-].[Cu+2].[Cu+2].c1ccncc1.c1ccncc1 [Cu(II)2 (acetylsalicylate)4 (pyridine)2],IC50,[1],2700 nM
same,Percent Reactivity (SOD-like activity),[1],0.32%
CC(=O)Oc1ccccc1C(=O)[O-].CC(=O)Oc1ccccc1C(=O)[O-].CC(=O)Oc1ccccc1C(=O)[O-].CC(=O)Oc1ccccc1C(=O)[O-].[Cu+2].[Cu+2].c1ccncc1.c1ccncc1.c1ccncc1.c1ccncc1 [Cu(II)2 (acetylsalicylate)4 (pyridine)4],superoxide scavenging (in words),[1],superoxide scavengers
"CC(C)(C)c1cc(C(=O)[O-])c(O)c(C(C)(C)C)c1.CC(C)(C)c1cc(C(=O)[O-])c(O)c(C(C)(C)C)c1.[Cu+2] [Cu(II)(3,5-ditertiarybutylsalicylate)2]",superoxide scavenging (in words),[1],superoxide scavengers
same,IC50,[1],6200 nM
same,Percent Reactivity (SOD-like activity),[1],0.74%
O=C(O)c1ccccc1[O-].O=C(O)c1ccccc1[O-].[Cu+2] [Cu(II)(salicylate)2],Rate of superoxide dismutation,"[2]; Table I, footnote ** (Weser et al.)",1.6 × 10 M^-1 s^-1
same,superoxide scavenging (in words),[1],superoxide scavengers
same,IC50,[1],4600 nM
same,Percent Reactivity (SOD-like activity),[1],0.65%
O=C([O-])CN(CCN(CC(=O)[O-])CC(=O)O)CC(=O)O.[Na+].[Na+] [Na2 EDTA],"Rate, Cu(II)(L)2 + e^- aq",[3],1e+10 M⁻¹ s⁻¹
same,"Rate, Cu(II)(L)2 + HO^.",[4],4e+09 M⁻¹ s⁻¹
"NCCCNCCSP(=O)(O)O [WR2721, S-2-(3-aminopropylamino) ethyl-phosphorothioic acid]",undesirable side effects,patients,"emesis, hypertension, hypotension, somnolence and allergy"
Cu(II)2 (acetylsalicylate)4,superoxide scavenging (in words),[1],superoxide scavengers
same,IC50,[1],3100 nM
same,Percent Reactivity (SOD-like activity),[1],0.043%
bovine SOD: pure bovine SOD,"sensitivity of the assay, ug SOD per unit of activity","[1]; pure bovine SOD, per unit of activity, pH 7.8",0.85 µg
"copper 3,5-diisopropylsalicylate [Cu(II)(3,5-dips)2]",day post-irradiation after which none died,lethally irradiated mice; 0.49 mM/kg sc 3 hours before 10 Gy,18 days
same,number of surviving mice,lethally irradiated mice; [6],8 mice
same,survival,lethally irradiated mice; [6],Thirty-three
same,day post-irradiation after which none died,lethally irradiated mice; 0.49 mM/kg sc 24 hours before 10 Gy,19 days
same,number of surviving mice,lethally irradiated mice; [7],14 mice
same,survival,lethally irradiated mice; [7],Fifty-eight
same,survival,"lethally irradiated mice; pretreatment interval 3 h, restated in comparison with Cu-Zn SOD",33%
same,survival,"lethally irradiated mice; pretreatment interval 24 h, restated in comparison with Cu-Zn SOD",58%
same,survivors,"lethally irradiated mice; similarly treated mice, irradiated with 12 Gy",no survivors
same,protection compared with Cu-Zn SOD (in words),"lethally irradiated mice; vs Cu-Zn SOD data of Petkau, different conditions",much greater protection
same,predicted LD50 in human beings,human beings,approximately 250 mg/kg
same,superoxide scavenging (in words),[1],superoxide scavengers
same,IC50,[1],2900 nM
same,efficiency in disproportionating superoxide compared with Cu-Zn SOD (in words),[1]; based on Table I,not as efficient as Cu-Zn SOD
same,mean SOD activity,"[1]; modified assay, DMSO-KO2, pH 7.8","17,400±1,800 units per milligram"
same,Percent Reactivity (SOD-like activity),[1],0.70%
same,LD50,rats; subcutaneous,240 +33 mg/kg
same,LD50/7,"rats; subcutaneous injection, 10080 min",240 mg/kg
same,Rate of superoxide dismutation,[5],1e+09 to 2e+09 M⁻¹ s⁻¹
same,LD50/7,mice,at least 280 mg/kg
"superoxide dismutase: enzyme that catalyzes the dismutation of O2^-; native SOD has a molecular weight of about 32,000 daltons","rate of O2^- dismutation, k",[2]; Czapski 1971,1.3e+09 M⁻¹ s⁻¹
